This note sets out measurements from patent US20260207654A1, “HEPARAN SULFATE AND ITS MIMETICS AS CHEMOKINE INHIBITORS” (INDIAN INSTITUTE OF SCIENCE EDUCATION AND RESEARCH, priority 2021, published 2026).

Experiment [1] concerns the target T1, CCL2 (Homo sapiens, UniProt P13500). Nature of the experiment: Surface Plasmon Resonance (SPR) binding kinetics. Conditions: compound immobilized on CM5 chip, 25° C., 1:1 model. How it is done: (§1) FIG. 1: SPR analysis of chemokines binding profile for the compounds of present invention: SPR binding analysis of the interaction between the examples 12, 17, and 19, chemokines were reported, Concentrations of chemokines were 0.05-2 μM. A global fit according to a 1:1 binding model was applied (black curves).
(§2) Surface Plasmon Resonance (SPR) binding kinetics The compound of present invention (test compound, Example 12) was covalently immobilized on sensor chip via coupling reaction. At first, the dextran matrix on CM5 chip was activated with NHS (0.02 M) and EDC coupling reagent (0.2 M) at a flow rate of 5 μL min^−1 for 15 min before activating with 50 μL of test compound (0.5 mM) in HBS-EP buffer. In the negative control cell after EDC and NHS activation, 0.5 mM of ethanol amine solution was flowed. The positive RU response on test compound confirmed immobilization of the HS ligand on CM5 chips. Then, different chemokines at a flow rate of 50 μL/min and 25° C. in HBS-EP buffer without growth factor was then flowed over the sensor surface for 3 min to enable association/dissociation. Kinetic analysis was performed using the BIA evaluation software for T100. Association and dissociation phase data were globally fitted to a simple 1:1 interaction model.
(§3) Table 2: SPR analysis of kinetic rate constants and equilibrium affinities of compounds of present invention binding to chemokines
as §2, with “The” for “Surface Plasmon Resonance (SPR) binding kinetics The”, “12, 17 & 18)” for “12)”

Experiment [2] concerns the target T2, CXCL12 (Homo sapiens, UniProt P48061). Nature of the experiment: Surface Plasmon Resonance (SPR) binding kinetics. Conditions: compound immobilized on CM5 chip, 25° C., 1:1 model. The protocol: as §1, §2, §3
as §2, with “The” for “Surface Plasmon Resonance (SPR) binding kinetics The”, “12, 17 & 18)” for “12)”

Experiment [3] deals with T3, CXCL8 (Homo sapiens, UniProt P10145).
T3 sequence (P10145 21-99): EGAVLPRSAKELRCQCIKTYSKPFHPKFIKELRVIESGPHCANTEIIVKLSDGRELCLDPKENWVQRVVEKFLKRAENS
The experiment can be described thus: Surface Plasmon Resonance (SPR) binding kinetics. The conditions noted are these: compound immobilized on CM5 chip, 25° C., 1:1 model. How it is done:
as §1, §2, §3
as §2, with “The” for “Surface Plasmon Resonance (SPR) binding kinetics The”, “12, 17 & 18)” for “12)”

In experiment [4] the target is T4, CXCL10 (Homo sapiens, UniProt P02778).
T4 sequence (P02778 22-98): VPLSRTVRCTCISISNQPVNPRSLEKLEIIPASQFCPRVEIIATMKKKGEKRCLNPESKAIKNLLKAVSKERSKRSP
Nature of the experiment: Surface Plasmon Resonance (SPR) binding kinetics. The conditions noted are these: compound immobilized on CM5 chip, 25° C., 1:1 model. How it is done: as §1, §2, §3
as §2, with “The” for “Surface Plasmon Resonance (SPR) binding kinetics The”, “12, 17 & 18)” for “12)”

For experiment [5], the target named is T5, CCL5 (Homo sapiens, UniProt P13501).
T5 sequence (P13501 24-91): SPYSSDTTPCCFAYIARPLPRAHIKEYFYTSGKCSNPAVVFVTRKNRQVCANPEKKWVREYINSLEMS
The experiment can be described thus: Surface Plasmon Resonance (SPR) binding kinetics. Conditions: compound immobilized on CM5 chip, 25° C., 1:1 model. How it is done:
as §1, §2, §3
as §2, with “The” for “Surface Plasmon Resonance (SPR) binding kinetics The”, “12, 17 & 18)” for “12)”

Experiment [6] addresses T1, CCL2. Nature of the experiment: Chemokine glycan microarray binding assay. Conditions: maximum RFU set as 100% binding, average across 2 glycan concentrations and 3 chemokine dilutions (n=6). Summed up: (§4)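 Glycans printed at 100 μM (four replicates) on epoxy slides, blocked with ethanolamine and ovalbumin, then incubated 2 h at RT with chemokines at three serial dilutions in PBS pH 7.3/1% ovalbumin. Bound chemokine detected with biotinylated secondary antibody plus Cy3-streptavidin; RFU ranked against block maximum (100%), averaged across dilutions.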

Another experiment addresses T6, CCL28 (Homo sapiens, UniProt Q9NRJ3).
T6 sequence (Q9NRJ3 20-127): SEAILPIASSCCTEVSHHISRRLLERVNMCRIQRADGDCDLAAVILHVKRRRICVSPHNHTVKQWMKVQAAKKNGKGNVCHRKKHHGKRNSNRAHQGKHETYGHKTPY
Nature of the experiment: Chemokine glycan microarray binding assay. Conditions: maximum RFU set as 100% binding, average across 2 glycan concentrations and 3 chemokine dilutions (n=6). Summed up: as §4

For another experiment, the target named is T7, CCL21 (Homo sapiens, UniProt O00585).
T7 sequence (O00585 24-134): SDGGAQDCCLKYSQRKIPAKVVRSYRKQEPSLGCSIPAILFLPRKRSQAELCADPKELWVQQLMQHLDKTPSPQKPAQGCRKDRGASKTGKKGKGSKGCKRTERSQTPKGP
Nature of the experiment: Chemokine glycan microarray binding assay. Conditions: maximum RFU set as 100% binding, average across 2 glycan concentrations and 3 chemokine dilutions (n=6). The gist of the method:
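Read-out is Cy3 fluorescence (RFU) of chemokine bound to covalently arrayed glycans, converted to rank against the block's maximum signal and averaged over three chemokine dilutions. Binding ran 2 h at room temperature in PBS pH 7.3 containing 1% ovalbumin; detection used a biotinylated secondary antibody and Cy3-streptavidin.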

The next experiment addresses CCL7 (Homo sapiens, UniProt P80098). Nature of the experiment: Chemokine glycan microarray binding assay. The conditions noted are these: maximum RFU set as 100% binding, average across 2 glycan concentrations and 3 chemokine dilutions (n=6). Summed up:
as §4

Experiment [7] deals with T2, CXCL12. The experiment can be described thus: Chemokine glycan microarray binding assay. Conditions: maximum RFU set as 100% binding, average across 2 glycan concentrations and 3 chemokine dilutions (n=6). Summed up:
as §4

Experiment [8] deals with T3, CXCL8. Nature of the experiment: Chemokine glycan microarray binding assay. The conditions noted are these: maximum RFU set as 100% binding, average across 2 glycan concentrations and 3 chemokine dilutions (n=6). Summed up: as §4
Experiment [9] has as its target T4, CXCL10. Nature of the experiment: Chemokine glycan microarray binding assay. Conditions: maximum RFU set as 100% binding, average across 2 glycan concentrations and 3 chemokine dilutions (n=6). Summed up: as §4
In experiment [10] the target is T5, CCL5. Nature of the experiment: Chemokine glycan microarray binding assay. Conditions: maximum RFU set as 100% binding, average across 2 glycan concentrations and 3 chemokine dilutions (n=6). Summed up: as §4
The next experiment addresses CCL13 (Homo sapiens, UniProt Q99616). Nature of the experiment: Chemokine glycan microarray binding assay. Conditions: maximum RFU set as 100% binding, average across 2 glycan concentrations and 3 chemokine dilutions (n=6). Summed up:
as §4

T1 sequence (P13500 24-99, species assumed): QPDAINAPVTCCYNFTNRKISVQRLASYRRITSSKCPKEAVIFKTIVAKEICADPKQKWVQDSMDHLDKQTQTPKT
T2 sequence (P48061 22-93, species assumed): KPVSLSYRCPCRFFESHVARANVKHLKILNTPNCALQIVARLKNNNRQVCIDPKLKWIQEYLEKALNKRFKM
Sequence of CCL13 (Q99616 17-98, species assumed): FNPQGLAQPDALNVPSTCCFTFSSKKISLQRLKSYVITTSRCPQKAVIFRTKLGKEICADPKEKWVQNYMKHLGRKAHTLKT
Sequence of CCL7 (P80098 24-99, species assumed): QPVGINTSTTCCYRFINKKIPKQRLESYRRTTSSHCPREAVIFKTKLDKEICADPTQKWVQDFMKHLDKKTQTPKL

For the compound `NCCOCCO[C@@H]1O[C@@H](C(=O)O)[C@@H](O[C@@H]2O[C@@H](C(=O)O)[C@@H](O[C@@H]3O[C@@H](C(=O)O)[C@@H](O[C@@H]4O[C@@H](C(=O)O)[C@@H](OS(=O)(=O)O)[C@H](O)[C@H]4OS(=O)(=O)O)[C@H](O)[C@H]3OS(=O)(=O)O)[C@H](O)[C@H]2OS(=O)(=O)O)[C@H](O)[C@H]1OS(=O)(=O)O` [Example 12, Ethoxy-2-aminoethoxyl-O-((2-4-O-disulfonato)-α-L-idopyranosyl Uronic Acid-α(1->4)(2-O-sulfonato)-α-L-idopyranosyl Uronic Acid-α(1→4)(2-O-sulfonato)-α-L-idopyranosyl Uronic Acid-α(1→4)(2-O-sulfonato))-α-L-idopyranoside Uronic Acid], the Kd on CCL2 [1] is 1.67 ± 0.3 µM; on CXCL12 [2] it was 18.8 ± 0.44 µM; at CXCL8 [3] it was 9.34 ± 0.21 µM; at CXCL10 [4], 15.3 ± 0.21 µM; at CCL5 [5], 5.72 ± 0.24 µM. Moreover, the Koff on CCL2 [1] is listed as 2.1 ± 0.5 × 10^−1 S^−1; at CXCL12 [2], 2.1 ± 0.78 × 10^−1 S^−1; on CXCL8 [3], 2.96 ± 0.1 × 10^−1 S^−1; on CXCL10 [4], 2.2 ± 0.38 × 10^−1 S^−1; on CCL5 [5], 2.4 ± 0.38 × 10^−1 S^−1. Further, the Kon on CCL2 [1] was 1.26 ± 0.08 × 10^5 M^−1S^−1; on CXCL12 [2] it was 1.1 ± 0.46 × 10^4 M^−1S^−1; on CXCL8 [3] it was 3.16 ± 0.08 × 10^5 M^−1S^−1; on CXCL10 [4], 1.44 ± 0.46 × 10^4 M^−1S^−1; at CCL5 [5], 4.2 ± 0.46 × 10^4 M^−1S^−1. Besides, on CCL2 [6], the “mean rank binding to CCL2” value came to 88%. In addition, at CCL28, the “mean rank binding to CCL28” value is 72%. Besides, the “mean rank binding to CCL21” value at CCL21 was determined as 50%. In addition, on CCL7, the “mean rank binding to CCL7” value was determined as 80%. Besides, the “mean rank binding to CXCL12” value at CXCL12 [7] is on record as 91%. The “mean rank binding to CXCL8” value at CXCL8 [8] was determined as 96%. Besides, at CXCL10 [9], the “mean rank binding to CXCL10” value was 87%. On CCL5 [10], the “mean rank binding to CCL5” value was determined as 91%. Moreover, the “mean rank binding to CCL13” value on CCL13 stood at 70%.
